# Residues, ends and D or L forms follow the SMILES beside them.
# Tested on: enzyme (SP-Sepharose HP fraction) derived from Sphingobacterium sp. strain FERM BP-8124
# Test: not given
# Format: biochemical
# Design: key to Produced peptide (mM): +: those peptides for which production was confirmed but which were unable to be quantified due to the absence of a standard; a trace amount
# Settings: Table 15-2; carboxy component 100 mM, L-Gln 150 mM, 0.33 units enzyme, pH 9.0, 25° C., 1.5 hours
# Procedure: Substrate specificity was examined for enzyme derived from Sphingobacterium sp. strain FERM BP-8124 (Depositary institution: National Institute for Advanced Industrial Science and Technology, International Patent Organism Depositary, Address of depositary institution: Central. 6, 1-1-1 Higashi, Tsukuba City, Ibaraki Prefecture, Japan, International deposit date: Jul. 22, 2002). 100 μl of 100 mM borate buffer (pH 9.0) containing the various carboxy components at a final concentration of 100 mM and the various amine components at a final concentration of 150 mM shown in Tables 15-1 to 15-4, the SP-Sepharose HP fraction enzyme purified in Example 22 (addition of 0.33 units in the reaction liquid) and 10 mM EDTA were allowed to react at 25° C. for 1.5 hours. […] In addition, hydrochlorides were used for all carboxy components.
# Substrate specificity with respect to oligopeptide production was examined for enzyme derived from Sphingobacterium sp. strain FERM BP-8124 (Depositary institution: National Institute for Advanced Industrial Science and Technology,.International Patent Organism Depositary, Address of depositary institution: Chuo Dai-6, 1-1 Higashi 1-Chome, Tsukuba-shi, Ibaraki-ken, Japan, International deposit date: Jul. 22, 2002). A 100 μl aliquot of 100 mM borate buffer (pH 9.0) containing the various carboxy components at a final concentration of 100 mM and the various amine components at a final concentration of 150 mM shown in Table 16, the SP-Sepharose HP fraction enzyme purified in Example 22 (addition of 0.33 units in the reaction liquid) and 10 mM EDTA were allowed to react for 1.5 hours at 25° C. Furthermore, hydrochloride salts were used for all carboxy components.
row,Produced peptide [mM],Compound
1,32.6,CSCC[C@H](N)C(=O)N[C@@H](CCC(N)=O)C(=O)O [L-Met-L-Gln] (H-Met-Gln-OH)
2,0.8,NC(=O)CC[C@H](NC(=O)[C@@H](N)Cc1ccccc1)C(=O)O [L-Phe-L-Gln]
3,1.8,NC(=O)CC[C@H](NC(=O)[C@@H]1CCCN1)C(=O)O [L-Pro-L-Gln] (H-Pro-Gln-OH)

# Same assay, conditions: Table 15-3; carboxy component 100 mM, amine component 150 mM, 0.33 units enzyme, pH 9.0, 25° C., 1.5 hours
Produced peptide [mM],Produced peptide (mM),Compound
17.9,,NCC(=O)N[C@@H](CCCN=C(N)N)C(=O)O [Gly-L-Arg] (H-Gly-Arg-OH)
48.2,,NCCCC[C@H](NC(=O)CN)C(=O)O [Gly-L-Lys] (H-Gly-Lys-OH)
20.0,,NCC(=O)N[C@@H](Cc1ccccc1)C(=O)O [Gly-L-Phe] (H-Gly-Phe-OH)
53.8,,NCC(=O)N[C@@H](CO)C(=O)O [Gly-L-Ser] (H-Gly-Ser-OH)
,tr,CSCC[C@H](NC(=O)[C@@H](N)CCCN=C(N)N)C(=O)O [L-Arg-L-Met] (H-Arg-Met-OH)
,tr,NC(N)=NCCC[C@H](N)C(=O)N[C@@H](Cc1ccccc1)C(=O)O [L-Arg-L-Phe]
2.2,,NC(N)=NCCC[C@H](N)C(=O)N[C@@H](CO)C(=O)O [L-Arg-L-Ser] (H-Arg-Ser-OH)
1.5,,CC[C@H](C)[C@H](N)C(=O)N[C@@H](Cc1ccccc1)C(=O)O [L-Ile-L-Phe] (H-Ile-Phe-OH)
17.3,,CC[C@H](C)[C@H](N)C(=O)N[C@@H](CO)C(=O)O [L-Ile-L-Ser] (H-Ile-Ser-OH)
28.4,,CSCC[C@H](NC(=O)[C@@H](N)CCSC)C(=O)O [L-Met-L-Met] (H-Met-Met-OH)
25.3,,CSCC[C@H](N)C(=O)N[C@@H](CO)C(=O)O [L-Met-L-Ser] (H-Met-Ser-OH)

# Same assay, conditions: Table 15-4; amides or methylamine as components; 100 mM / 150 mM, 0.33 units enzyme, pH 9.0, 25° C., 1.5 hours
row,Produced peptide [mM],Compound
1,15.1,C[C@H](N)C(=O)NCC(N)=O [L-Ala-Gly-NH2] (H-Ala-Gly-NH2)
2,9.2,C[C@H](N)C(=O)N[C@@H](C)C(N)=O [L-Ala-L-Ala-NH2] (H-Ala-Ala-NH2)
3,27.1,C[C@H](N)C(=O)N[C@@H](Cc1ccccc1)C(N)=O [L-Ala-L-Phe-NH2]

row,Compound,Produced peptide [mM]
1,CNC(=O)CN [Gly-methylamine],1.0
2,CNC(=O)C(C)N [L-Ala-methylamine],0.6

# Tested on: peptide-producing enzyme (Mono S fraction) from Empedobacter brevis strain FERM BP-8113
# Test: Enzyme substrate specificity (1)-(10), (13), (14)
# Format: biochemical
# Settings: L-Ala-OMe 100 mM, L-amino acid amide 150 mM as amine component, pH 9.0, 25° C., 3 hours
# From the text: Ester specificity was examined in the case of using L-amino acid ester for the carboxy component. […] The amounts of L-Ala-L-Gln produced in this reaction are shown in Table 4 (HCl represents hydrochloride in Table 4). Peptide production was examined in the case of using L-alanine methyl ester for the carboxy component and using various L-amino acids for the amine component. […] (The “+” mark indicates those peptides for which production was confirmed but which were unable to be quantified due to the absence of a standard, while “tr” indicates a trace amount.) Peptide production was examined in the case of using various types of L-amino acid methyl esters for the carboxy component and using L-glutamine for the amine component. […] Peptide production was examined in the case of using various L-amino acid methyl esters for the carboxy component and various L-amino acids for the amine component. […] (The “tr” indicates a trace amount.) Furthermore, Tween-80 was added to the reaction system to a final concentration of 0.1% in the case of using L-Trp-OMe. (The “+” mark indicates those peptides for which production was confirmed but which were unable to be quantified due to the absence of a standard.) […] (The “tr” indicates a trace amount.) Peptide production was examined using various L-amino acid amides for the carboxy component, and various L-amino acids for the amine component. […] Peptide production was examined in the case of using various L-alanine methyl esters for the carboxy component and C-protected L-amino acids for the amine component. […] Peptide production was examined in the case of using various amino acid methyl esters for the carboxy component and methylamine for the amine component. […] Peptide production was examined in the case of using β-amino acid ester for the carboxy component or β-amino acid for the amine component. […] (The “tr” indicates a trace amount.) Oligopeptide production was examined in the case of using L-amino acid ester for the carboxy component and peptide for the amine component. […] Substrate specificity was additionally assessed using the same enzyme fraction as that used in Example 5. […] (A “+” mark indicates those for which production was confirmed but which were unable to be quantified due to the absence of a standard, while “tr” indicates a trace amount). Substrate specificity with respect to oligopeptide production was assessed using the same enzyme fraction as Example 26. […] (A “+” mark indicates those for which production was confirmed but which were unable to be quantified due to the absence of a standard, while “tr” indicates a trace amount). It should be noted that hydrochlorides were used for all of the carboxy components.
row,Produced peptide [mM],Compound
1,7.4,C[C@H](N)C(=O)NCC(N)=O [L-Ala-Gly-NH2] (H-Ala-Gly-NH2)
2,8.3,C[C@H](N)C(=O)N[C@@H](C)C(N)=O [L-Ala-L-Ala-NH2] (H-Ala-Ala-NH2)
3,12.2,C[C@H](N)C(=O)N[C@@H](Cc1ccccc1)C(N)=O [L-Ala-L-Phe-NH2]

# Same assay, conditions: L-amino acid amide hydrochloride 100 mM as carboxy component, L-amino acid 150 mM, pH 9.0, 25° C., 3 hours
row,Produced peptide [mM],Compound
1,0.2,NC(=O)CC[C@H](NC(=O)[C@@H](N)Cc1ccccc1)C(=O)O [L-Phe-L-Gln]

# Same assay, conditions: L-amino acid methyl ester hydrochloride 100 mM, 150 mM L-glutamine, pH 9.0, 25° C., 3 hours
row,Produced peptide [mM],Compound
1,12.0,CSCC[C@H](N)C(=O)N[C@@H](CCC(N)=O)C(=O)O [L-Met-L-Gln] (H-Met-Gln-OH)
2,0.9,NC(=O)CC[C@H](NC(=O)[C@@H](N)Cc1ccccc1)C(=O)O [L-Phe-L-Gln]
3,2.2,NC(=O)CC[C@H](NC(=O)[C@@H]1CCCN1)C(=O)O [L-Pro-L-Gln] (H-Pro-Gln-OH)

# Same assay, conditions: L-amino acid methyl ester hydrochloride 100 mM, L-amino acid 150 mM, pH 9.0, 25° C., 3 hours
row,Produced peptide [mM],Compound
1,25.5,NCC(=O)N[C@@H](CCCN=C(N)N)C(=O)O [Gly-L-Arg] (H-Gly-Arg-OH)
2,9.8,NCCCC[C@H](NC(=O)CN)C(=O)O [Gly-L-Lys] (H-Gly-Lys-OH)
3,44.0,NCC(=O)N[C@@H](Cc1ccccc1)C(=O)O [Gly-L-Phe] (H-Gly-Phe-OH)
4,44.2,NCC(=O)N[C@@H](CO)C(=O)O [Gly-L-Ser] (H-Gly-Ser-OH)
5,0.7,CSCC[C@H](NC(=O)[C@@H](N)CCCN=C(N)N)C(=O)O [L-Arg-L-Met] (H-Arg-Met-OH)
6,1.9,NC(N)=NCCC[C@H](N)C(=O)N[C@@H](Cc1ccccc1)C(=O)O [L-Arg-L-Phe]
7,3.6,NC(N)=NCCC[C@H](N)C(=O)N[C@@H](CO)C(=O)O [L-Arg-L-Ser] (H-Arg-Ser-OH)
8,5.2,CC[C@H](C)[C@H](N)C(=O)N[C@@H](Cc1ccccc1)C(=O)O [L-Ile-L-Phe] (H-Ile-Phe-OH)
9,17.2,CC[C@H](C)[C@H](N)C(=O)N[C@@H](CO)C(=O)O [L-Ile-L-Ser] (H-Ile-Ser-OH)
10,25.0,CSCC[C@H](NC(=O)[C@@H](N)CCSC)C(=O)O [L-Met-L-Met] (H-Met-Met-OH)
11,12.8,CSCC[C@H](N)C(=O)N[C@@H](CO)C(=O)O [L-Met-L-Ser] (H-Met-Ser-OH)

# Same assay, conditions: amino acid methyl ester 100 mM, methylamine 150 mM, pH 9.0, 25° C., 3 hours
row,Compound,Produced peptide [mM]
1,CNC(=O)CN [Gly-methylamine],1.1
2,CNC(=O)C(C)N [L-Ala-methylamine],0.3

# Same assay, conditions: oligopeptide production, amount of enzyme 0.1 units, pH 9.0, 25° C., 3 hours
row,Produced peptide [mM],Compound
1,17.3,NCC(=O)N[C@@H](Cc1ccccc1)C(=O)O [Gly-L-Phe] (H-Gly-Phe-OH)

# Reference: patent US20040253665A1, “Novel peptide-producing enzyme, microbe producing the enzyme and method for dipeptide synthesis using them” (AJINOMOTO CO., INC., priority 2002, published 2004)
